Earlier results on 4 molecules are cited in patent publication US20230172920A1, “DOSING REGIMEN FOR TREATING A DISEASE MODULATED BY CSF-1R” (Novartis AG, priority 2020, published 2023).

For series [1] the following is noted: cited from earlier work.
The conditions of series [2]: Phase 2b/3 clinical trial; cited from earlier work.

Like-named read-outs stand apart in the source and are kept apart here.

Regarding `FC(F)(F)c1ccc(CNc2ccc(Cc3c[nH]c4ncc(Cl)cc34)cn2)cn1` [PLX3397, reference compound], the “serum enzyme increases in clinical trials” value (“serum enzyme increases” for short) in series [1] (literature reports) is on record as “Asymptomatic serum enzyme increases”.
Take `Cc1ccc(NC(=O)c2ccc(CN3CCN(C)CC3)cc2)cc1Nc1nc(-c2cccnc2)cs1` [masitinib]: the “disease progression in patients with ALS” value in series [2] is reported as “significant delay of disease progression”.
In the case of “FPA008: monoclonal antibody against CSF-1R”, the “serum enzyme increases” value in series [1] (human, in vivo) is given as “Asymptomatic serum enzyme increases”.

B1: MCS110: monoclonal antibody against CSF-1 ligand (antibody, chains of the INN, looked up, V domains shown)
VH: QVQLQESGPGLVKPSQTLSLTCTVSDYSITSDYAWNWIRQFPGKGLEWMGYISYSGSTSYNPSLKSRITISRDTSKNQFSLQLNSVTAADTAVYYCASFDYAHAMDYWGQGTTVTVSS
VL: DIVLTQSPAFLSVTPGEKVTFTCQASQSIGTSIHWYQQKTDQAPKLLIKYASESISGIPSRFSGSGSGTDFTLTISSVEAEDAADYYCQQINSWPTTFGGGTKLEIK
Consider B1, for which the “serum enzyme increases” value in series [1] (human, in vivo) is on record as “Asymptomatic serum enzyme increases”.
